Source: US11920165B2, “Cultivation of human noroviruses” (Baylor College of Medicine, priority 2015, dated 2024)
Where two headings read alike, the source gives them in different places.

Tests used:
TCH04-577 GII.3 HuNoV [1] = assay: microbe, parasite or virus in culture; details: Norovirus, in Homo sapiens, 72 h, read-out: Fold increase in viral genome copies compared to no bile (0-72 hpi)
Method: (§2) At 72 hours post infection, the cells and media were harvested and viral RNA was quantified by qRT-PCR. Each bile acid was added at a concentration of 0.5 mM.

TCH04-577 GII.3 HuNoV [2] = details: J2 enteroids
Method: as §2

TCH04-577 GII.3 HuNoV [3] = assay: GII.3 replication in J2 jHIE monolayers with ceramide and GCDCA; assay type: cell-based, human norovirus; details: ceramide alone; 24 hpi
Method: FIG. 32. At least one lipid, ceramide, enhances GII.3 HuNoV replication alone or in combination with the bile acid GCDCA.J2 jHIE monolayers (p.12) were inoculated with 4.3×105 genome equivalents of TCH04-577 for 1 hr, and after washing twice with CMGF(−) media to remove unbound virus, culture continued in differentiation medium for 24 hrs. The amount of infectious virus was quantified after the washing at 1 hpi (black bars) and at 24 hpi (gray bars). Additives were added to the medium during and post inoculation.
(§1) FIG. 33. Ceramide alone, or in combination with the bile acid GCDCA, enhances GII.3 but not GII.4 HuNoV replication. J2 jHIE monolayers (p.23) were inoculated with 4.3×105 or 9×105 genome equivalents of TCH04-577 or TCH12-580, respectively, for 1 hr and, and after washing twice with CMGF(−) media to remove unbound virus, culture continued in differentiation medium for 72 hrs. The amount of infectious virus was quantified after the washing at 1 hpi (black bars) and 72 hpi (gray bars). Additives (500 μM GCDCA or 500 μM GCDCA+50 μM C2-ceramide) were added to the medium during and post inoculation. Error bars denote standard deviation. p<0.01 comparing genome equivalents at 72 hpi between GCDCA and ceramide+GCDCA.

GII.4 HuNoV = GII.4 HuNoV replication in jejunal HIE monolayers with bile, bile fractions or additives (RT-qPCR); assay type: cell-based, human norovirus; details: GCDCA bile acid
Method: FIGS. 26A-26D. Bile is not required but enhances GII.4 HuNoV replication. […] The monolayers were inoculated with 5.5×10^5 genome equivalents of (FIG. 26A) GII.4/2006b-3 or, (FIG. 26B) GII.4/2009, or (FIGS. 26C and 26D) GII.4/2012-1 in the absence or presence of the indicated bile for 1 hour at 37° C.
as §1
One can analyze these samples by mass spectroscopy to determine the bile acid, lipid, fatty acid and/or cholesterol content. Bile was also fractionated based on filtration through different molecular cut-off filters. […]

[4] = test system: porcine enteric calicivirus; details: Flynn and Saif, 1988; Chang et al., 2004; cited from earlier work
TCH04-577 GII.3 HuNoV [5] = assay: GII.3 replication in jejunal enteroids with acid sphingomyelinase inhibitors (RT-qPCR); assay type: cell-based, human norovirus; details: inhibitor present 1 hr before and during 24 hrs
Method: FIG. 34. Acid sphingomyelinase (ASM) inhibitors suppress GII.3 HuNoV replication. Jejunal enteroids were pretreated with inhibitors for 1 hr and inoculated with TCH04-577 for 1 hr, washed twice with CMGF(−) and cultured for 24 hrs in the presence of the inhibitors. RNA was extracted from cells and medium at 1 and 24 hpi and genome equivalents were analyzed by RT-qPCR.
Acid sphingomyelinase (ASM) that converts sphingomyelin into ceramide is involved in HuNoV infectivity, in at least certain embodiments.

TCH11-64 GII.4 HuNoV = assay: GII.4 infection of jejunal enteroids after cholesterol extraction or trypsin treatment (VP1-positive cells); assay type: cell-based, human norovirus; details: 24 hpi
Method: FIG. 35. Cholesterol extraction using methyl-β-cyclodextrin or treatment of cells with trypsin reduces HuNoV infection. Jejunal enteroids were untreated or treated for 45 min with methyl-β-cyclodextrin (MβCD) or 15 min with trypsin. Trypsin was inhibited with aprotinin and then the monolayer was washed prior to infection. MβCD was present during and after infection. Enteroids were infected with 3×10^6 genome equivalents of TCH11-64 GII.4 HuNoV. Enteroid monolayers were fixed at 24 hpi, VP1 detected by immunofluorescence and the number of VP1-positive cells counted per well.
In specific embodiments of the disclosure, HuNoV use a proteinaceous receptor in lipid rafts for infection. Lipid rafts are specialized domains of the cell membrane and are central for the spatial organization of receptors and signaling molecules. […] Identification of the proteinaceous molecule(s) that function as the receptor for HuNoV replication will allow production of new, simple cell systems that express this receptor and that will support HuNoV replication.

GII.4/2012-1 HuNoV = assay: GII.4/2012-1 replication and CPE in jejunal HIEs with polymyxin B-treated stool filtrate; assay type: cell-based, human norovirus; details: inoculation with polymyxin B-treated samples
Method: FIGS. 21A-21C. […] (FIG. 21A) GII.4/2012-1 stool filtrates were not treated (−) or treated (+) with 100 μg/m polymyxin B for 24 hours. Then, 9×10^5 genome equivalents of the filtrates were inoculated onto each jejunal HIE monolayer for 1 hour. The monolayers were washed twice with CMGF(−) medium and cultured in differentiation medium. […] Error bars denote standard deviation. (FIG. 21B) Gamma irradiated or non-irradiated GII.4/2012-1 stool filtrates were either not treated (−) or treated (+) with polymyxin B for 24 hours. Jejunal HIE monolayers were inoculated with […] for 1 hour as described above. […]
We next evaluated the growth characteristics of HuNoV infection by assessing cytopathic effect (CPE), antigen detection, and the kinetics of infection. […] Two particle sizes were detected (FIG. 15D), with particles of the expected size (31.6+/−3.3 nm) and some smaller particles (FIG. 15D inset, 18.5+/−3.7 nm). […] By Western blot analysis, nonstructural polyprotein synthesis and processing (as evidenced by the detection of several VPg-containing polyprotein processing intermediates) and capsid protein (VP1) production were first detected at 12 hpi in infected cells but not at 1 or 6 hpi or in mock-infected cells (FIG. 15E). Consistent with the production of virus particles (FIG. 15D), VP1 was detected in the culture supernatant by 24 hpi (FIG. 15E). […]

[6] = test system: GI.1, GII.3, GII.17 HuNoVs; assay: Replication of other HuNoV strains in jejunal HIE monolayers with components of the intestinal milieu; details: GI.1, GII.3, GII.17 in jejunal HIE monolayers
Method: The monolayers were washed three times with CMGF(−) medium and cultured for the indicated days in differentiation medium in the absence (0%) or presence of the indicated concentrations of bile. At 1 hour and the indicated time post-inoculation, the cells and medium were harvested, RNA extracted and viral genome equivalents quantified by RT-qPCR. Data represent the mean of three wells for each treatment and time point. Error bars denote standard deviation. *, P<0.05 comparing genome equivalents from 1 hpi to the indicated time points.
We next tested whether monolayer cultures of jejunal HIEs could support replication of other HuNoV strains (GI.1, GII.3, GII.17). […] Consequently, several components of the intestinal milieu were assessed for their ability to promote replication of these HuNoVs in HIE monolayers.

C[C@H](CCC(=O)O)[C@H]1CC[C@H]2[C@@H]3[C@H](O)C[C@@H]4C[C@H](O)CC[C@]4(C)[C@H]3C[C@H](O)[C@]12C [CA, cholic acid]
fold induction at 500 µM (TCH04-577 GII.3 HuNoV [1]): 49 to 63

C[C@H](CCC(=O)O)[C@H]1CC[C@H]2[C@@H]3[C@H](O)C[C@@H]4C[C@H](O)CC[C@]4(C)[C@H]3CC[C@]12C [CDCA, chenodeoxycholic acid]
Fold increase in viral genome copies compared to no bile (0-72 hpi) (TCH04-577 GII.3 HuNoV [2]; bile acid 100 uM): no increase

CCCCCCCCCCCCC/C=C/[C@@H](O)[C@H](CO)NC(C)=O [Ceramide, C2-ceramide]
GII.3 replication (TCH04-577 GII.3 HuNoV [3]): enhances

C[C@H](CCC(=O)NCC(=O)O)[C@H]1CC[C@H]2[C@@H]3[C@H](O)C[C@@H]4C[C@H](O)CC[C@]4(C)[C@H]3C[C@H](O)[C@]12C [GCA, Glycocholic acid]
fold induction at 500 µM (TCH04-577 GII.3 HuNoV [1]): 48

CC(CCC(=O)NCC(=O)O)C1CCC2C3C(O)CC4CC(O)CCC4(C)C3CCC12C (stereo not shown) [GCDCA, Glycochenodeoxycholic acid]
fold induction at 500 µM (TCH04-577 GII.3 HuNoV [1]): 71 to 106
GII.4 replication (GII.4 HuNoV): can enhance

CC(CCC(=O)NCC(=O)O)C1CCC2C3CCC4CC(O)CCC4(C)C3CC(O)C12C (stereo not shown) [GDCA, glycodeoxycholic acid]
fold induction at 500 µM (TCH04-577 GII.3 HuNoV [1]): 160

C[C@H](CCC(=O)NCCS(=O)(=O)O)[C@H]1CC[C@H]2[C@@H]3[C@H](O)C[C@@H]4C[C@H](O)CC[C@]4(C)[C@H]3C[C@H](O)[C@]12C [TCA, Taurocholic acid]
fold induction at 500 µM (TCH04-577 GII.3 HuNoV [1]): 65

C[C@H](CCC(=O)NCCS(=O)(=O)O)[C@H]1CC[C@H]2[C@@H]3[C@H](O)C[C@@H]4C[C@H](O)CC[C@]4(C)[C@H]3CC[C@]12C [TCDCA, Taurochenodeoxycholic acid]
Fold increase in viral genome copies compared to no bile (0-72 hpi) (TCH04-577 GII.3 HuNoV [2]; bile acid 500 uM): 48-103 fold

C[C@H](CCC(=O)NCCS(=O)(=O)O)[C@H]1CC[C@H]2[C@@H]3CC[C@@H]4C[C@H](O)CC[C@]4(C)[C@H]3C[C@H](O)[C@]12C [TDCA, Taurodeoxycholic acid]
fold induction at 500 µM (TCH04-577 GII.3 HuNoV [1]): 95

C[C@H](CCC(=O)NCCS(=O)(=O)O)[C@H]1CC[C@H]2[C@@H]3CC[C@@H]4C[C@H](O)CC[C@]4(C)[C@H]3CC[C@]12C [TLCA, taurolithocholic acid]
fold induction at 500 µM (TCH04-577 GII.3 HuNoV [1]): 268

C[C@H](CCC(=O)NCCS(=O)(=O)O)[C@H]1CC[C@H]2[C@@H]3[C@@H](O)C[C@@H]4C[C@H](O)CC[C@]4(C)[C@H]3CC[C@]12C [TUDCA, Tauroursodeoxycholic acid]
replication of porcine enteric calicivirus [4]: did not enhance
fold induction at 500 µM (TCH04-577 GII.3 HuNoV [1]): 27

C[C@H](CCC(=O)O)[C@H]1CC[C@H]2[C@@H]3[C@@H](O)C[C@@H]4C[C@H](O)CC[C@]4(C)[C@H]3CC[C@]12C [UDCA, ursodeoxycholic acid]
Fold increase in viral genome copies compared to no bile (0-72 hpi) (TCH04-577 GII.3 HuNoV [2]; bile acid 500 uM): no increase

CN(C)CCC=C1c2ccccc2CCc2ccccc21 [amitriptyline]
GII.3 replication (TCH04-577 GII.3 HuNoV [5]): significantly reduced
dose dependence of the effect on GII.3 replication (TCH04-577 GII.3 HuNoV [5]): dose-dependent decrease

CN(C)CCCN1c2ccccc2Sc2ccc(Cl)cc21 [chlorpromazine]
GII.3 replication (TCH04-577 GII.3 HuNoV [5]): significantly reduced
dose dependence of the effect on GII.3 replication (TCH04-577 GII.3 HuNoV [5]): dose-dependent decrease

methyl-β-cyclodextrin
GII.4 infection (VP1-positive cells per well) (TCH11-64 GII.4 HuNoV): significantly reduced

polymyxin B
CPE (GII.4/2012-1 HuNoV): not reduced

B1: trypsin: protease that cleaves proteins (protein, UniProt P00760 24-246, looked up)
Serine protease 1: IVGGYTCGANTVPYQVSLNSGYHFCGGSLINSQWVVSAAHCYKSGIQVRLGEDNINVVEGNEQFISASKSIVHPSYNSNTLNNDIMLIKLKSAASLNSRVASISLPTSCASAGTQCLISGWGNTKSSGTSYPDVLKCLKAPILSDSSCKSAYPGQITSNMFCAGYLEGGKDSCQGDSGGPVVCSGKLQGIVSWGSGCAQKNKPGVYTKVCNYVSWIKQTIASN
GII.4 infection (VP1-positive cells per well) (TCH11-64 GII.4 HuNoV): reduced
HuNoV replication [6]: failed to enhance
